Paper PMC11020896, “Development of a ^99mTc-labeled tetrazine for pretargeted SPECT imaging using an alendronic acid-based bone targeting model” (PLOS ONE, 2024)

Columns and labels:
[1] = test system: Healthy Balb/c female mice; assay: SPECT/CT quantitative image analysis of 99mTc-labeled Tzs (pretargeted with Aln-TCO, saline control, or directly targeted); format: in vivo; settings: for blood pool activity: directly targeted Aln-TCO
Description: (§1) The study was conducted in compliance with the guidelines set by the Canadian Council on Animal Care (CCAC) and approved by the Animal Care Committee (ACC) at the University of British Columbia (A20-0132). Healthy Balb/c female mice (~25 g) were anesthetized using isoflurane delivered via a precision vaporizer (5% in oxygen for induction, between 1.5 and 2.5% in oxygen for maintenance) and received 100 μL of a 2 mg/kg solution of Aln-TCO in saline (pretargeted groups), or 100 μL saline (control groups) via intravenous injection. After 1 h, mice were anesthetized again and received another i.v. injection containing 100 μL of ^99mTc labeled Tzs in saline, with an average activity of 17.58 MBq, as well as a subcutaneous injection of Lactated Ringer’s solution (0.5 mL) to ensure hydration before each imaging scan. After the injection, a VECTor/CT multimodal preclinical scanner (MILabs, The Netherlands) equipped with a HEUHR-1 mm mouse pinhole collimator was used to obtain static whole-body images. The first scans were obtained with a single frame lasting 25 minutes, followed by scans at 2- and 6-hours post-injection, each with a single frame lasting 40 and 50 minutes, respectively.
Throughout the scanning process, mice were maintained under isoflurane anesthesia and kept warm with a heating pad to ensure constant body temperature. Following each SPECT acquisition, a whole-body CT scan was performed to obtain anatomical information and the two images were registered. The ^99mTc photopeak window was centered at 140 keV with a 25% energy window width. SPECT image reconstructions were carried out using a pixel-ordered subset expectation maximization (POSEM) algorithm with 16 subsets, 6 iterations, and an isotropic 0.4 mm voxel grid to enable quantitative analysis. The images were decay corrected, and after CT registration, attenuation correction was applied. For visual representation, the reconstructed volumes of SPECT scans were post-filtered with a 3D Gaussian filter. CT scans were conducted using a tube setting of 55 kV and 615 μA, and 2 frames of 180 projections over 360 degrees were captured in step and shoot rotation mode. The acquired projection data was reconstructed using SkyScan NRecon software to generate a 3D CT image on 0.169 mm^3 voxel size. Volumes of interest (VOIs), in the left ventricle of the heart (blood pool), liver (n = 3), bladder, kidney (n = 2), shoulder and knee joint (n = 2, respectively) were manually defined using AMIDE [49] (v.1.0.5) to determine the time activity pattern per target organ. The average organ activity per volume was obtained from the SPECT images and the %ID/g of tissue were extracted from each organ. To relate the scanner units (counts/pixel) to radioactivity concentration (MBq/mL), a calibration factor was determined scanning a source with a known concentration of ^99mTc. Following the last time imaging time point (6 h, except mice injected with ^99mTc-3, which were sacrificed 24 h p.i.), mice were sacrificed via CO2 asphyxiation under isoflurane anesthesia. Blood was recovered via cardiac puncture and organs of interest were dissected out, cleaned and weighed. The bone uptake of the shoulder was measured by measuring the activity of scapula and humerus, cut below the elbow joint, while knee uptake was measured in the femur, cut below the knee joint. […] The activity was quantified on a calibrated Cobra II Autogamma counter (Packard Instruments, USA) and decay corrected to the time of injection. […]

[2] = test system: Healthy Balb/c female mice; assay: Post-mortem (ex vivo) biodistribution after last imaging time point, gamma counter; format: in vivo
Description: as §1
Throughout the scanning process, mice were maintained under isoflurane anesthesia and kept warm with a heating pad to ensure constant body temperature. Following each SPECT acquisition, a whole-body CT scan was performed to obtain anatomical information and the two images were registered. The ^99mTc photopeak window was centered at 140 keV with a 25% energy window width. SPECT image reconstructions were carried out using a pixel-ordered subset expectation maximization (POSEM) algorithm with 16 subsets, 6 iterations, and an isotropic 0.4 mm voxel grid to enable quantitative analysis. The images were decay corrected, and after CT registration, attenuation correction was applied. For visual representation, the reconstructed volumes of SPECT scans were post-filtered with a 3D Gaussian filter. CT scans were conducted using a tube setting of 55 kV and 615 μA, and 2 frames of 180 projections over 360 degrees were captured in step and shoot rotation mode. The acquired projection data was reconstructed using SkyScan NRecon software to generate a 3D CT image on 0.169 mm^3 voxel size. Volumes of interest (VOIs), in the left ventricle of the heart (blood pool), liver (n = 3), bladder, kidney (n = 2), shoulder and knee joint (n = 2, respectively) were manually defined using AMIDE [49] (v.1.0.5) to determine the time activity pattern per target organ. The average organ activity per volume was obtained from the SPECT images and the %ID/g of tissue were extracted from each organ. To relate the scanner units (counts/pixel) to radioactivity concentration (MBq/mL), a calibration factor was determined scanning a source with a known concentration of ^99mTc. Following the last time imaging time point (6 h, except mice injected with ^99mTc-3, which were sacrificed 24 h p.i.), mice were sacrificed via CO2 asphyxiation under isoflurane anesthesia. Blood was recovered via cardiac puncture and organs of interest were dissected out, cleaned and weighed. The bone uptake of the shoulder was measured by measuring the activity of scapula and humerus, cut below the elbow joint, while knee uptake was measured in the femur, cut below the knee joint. Bone samples were thoroughly cleaned from muscle and connective tissue. The activity was quantified on a calibrated Cobra II Autogamma counter (Packard Instruments, USA) and decay corrected to the time of injection.

[3] = directly targeted Aln-TCO, biodistribution 6 h p.i., ratio of %ID/g
[4] = directly targeted Aln-TCO, sacrificed 6 h p.i.

SMILES: O=C(O)CN(CCNC(=O)CCCC(=O)Nc1ccc(-c2nnc(-c3ccccn3)nn2)nc1)Cc1cccc(C(=O)O)n1 (99mTc complex, metal not drawn) [Tz 1, 6-(((carboxymethyl)(2-(5-oxo-5-((6-(6-(pyridin-2-yl)-1,2,4,5-tetrazin-3-yl)pyridin-3-yl)amino)pentanamido)ethyl)amino)methyl)picolinic acid]
- difference in blood pool activity, 1* vs 1a ([1]; 6 h p.i.): 15 fold
- blood pool activity ([1]; image analysis, 0 h): 27.35 ± 3.79 %ID/g
- liver activity over time ([1]; image analysis, 0-6 h, directly targeted): increase over time
- blood pool activity ([1]; image analysis, 6 h p.i.): 3.66 ± 0.65 %ID/g
- Knee/Blood ratio [2, 3]: 2.39 ± 0.09
- Knee/Liver ratio [2, 3]: 0.17 ± 0.09
- Shoulder/Blood ratio [2, 3]: 1.29 ± 0.30
- Shoulder/Liver ratio [2, 3]: 0.09 ± 0.30
- Bladder activity, post-mortem biodistribution [2, 4]: 1.22 ± 0.04 % ID/g
- Blood activity, post-mortem biodistribution [2, 4]: 3.82 ± 0.32 % ID/g
- Brain activity, post-mortem biodistribution [2, 4]: 0.10 ± 0.01 % ID/g
- Heart activity, post-mortem biodistribution [2, 4]: 2.87 ± 0.27 % ID/g
- Intestine activity, post-mortem biodistribution [2, 4]: 3.85 ± 0.49 % ID/g
- Kidney activity, post-mortem biodistribution [2, 4]: 9.04 ± 0.60 % ID/g
- Knee activity, post-mortem biodistribution [2, 4]: 9.13 ± 0.73 % ID/g
- Liver activity, post-mortem biodistribution [2, 4]: 54.39 ± 4.03 % ID/g
- Lung activity, post-mortem biodistribution [2, 4]: 6.70 ± 0.85 % ID/g
- Muscle activity, post-mortem biodistribution [2, 4]: 0.31 ± 0.01 % ID/g
- Pancreas activity, post-mortem biodistribution [2, 4]: 1.20 ± 0.20 % ID/g
- Shoulder activity, post-mortem biodistribution [2, 4]: 4.91 ± 1.43 % ID/g
- Spleen activity, post-mortem biodistribution [2, 4]: 38.03 ± 4.69 % ID/g
- Stomach activity, post-mortem biodistribution [2, 4]: 1.70 ± 0.10 % ID/g
- uptake in liver and spleen ([2]; directly targeted, 6 h p.i.): strong uptake

SMILES: O=C(O)CN(CCNC(=O)CCOCCOCCOCCOCCOCCOCCOCCOCCNC(=O)CCCC(=O)Nc1ccc(-c2nncnn2)cc1)Cc1cccc(C(=O)O)n1 [Tz 4, 6-(38-((4-(1,2,4,5-tetrazin-3-yl)phenyl)amino)-2-(carboxymethyl)-6,34,38-trioxo-9,12,15,18,21,24,27,30-octaoxa-2,5,33-triazaoctatriacontyl)picolinic acid]
- bone accumulation, pretargeted vs. non-targeted group ([1]; image analysis of shoulder and knee at 0, 2 and 6 h p.i.): did not show statistically significant bone uptake at any time point compared to the saline control
